Reference: patent US20060178398A1, “Therapeutic compounds for treating dyslipidemic conditions” (priority 2004, published 2006)

Test system: Caco-2 cells
Assay: Cholesterol efflux from cultured human cells (Caco-2, 3H-cholesterol, apoA-I)
Format: cell-based
Conditions: 24 h, mean of quadruplicate incubations
Method: To assess the relevant biological activity of the LXR agonists, certain compounds were tested for their ability to increase cholesterol efflux from cultured human cells, as described by Sparrow et al., JBC, 277, 10021-10027, Mar. 22, 2002. Caco-2 cells, which are of human origin, were obtained from ATCC and grown in Opti-MEM (Gibco #51985-034) containing 10% FCS, non-essential amino acids (Gibco #11140-050), and vitamins (Gibco # 11120-052). Caco-2 cells were plated at 100,000 cells/well in 48-well plates. After four days the cells had reached confluence, and were then labeled with ^3H-cholesterol by incubation for 24 hours in fresh growth media containing ^3H-cholesterol (10 μCi/ml). Following labeling with ^3H-cholesterol, cells were washed and incubated an additional 24 hours in serum-free media containing 1 mg/ml BSA, to allow for equilibration of ^3H-cholesterol with intracellular cholesterol. Cholesterol efflux was initiated by adding 10 μg/ml apoA-I, with or without compound, in serum-free medium. Compounds were added to cell culture medium from DMSO solutions, and control cells received an equivalent amount of DMSO, never exceeding 0.1%. After 24 hours, media were harvested and cells dissolved in 0.1 M NaOH. Media were briefly centrifuged to remove non-adherent cells, and then aliquots of both the supernatants and the dissolved cells were subjected to liquid scintillation spectrometry to determine radioactivity. Cholesterol efflux is expressed as a percentage, calculated as (^3H-cholesterol in medium/(^3H-cholesterol in medium +^3H-cholesterol in cells))×100.

Compound	% cholesterol efflux (compound concentration 10 nM)	% cholesterol efflux (compound concentration 30 nM)	% cholesterol efflux (compound concentration 100 nM)	% cholesterol efflux (compound concentration 300 nM)	% cholesterol efflux (compound concentration 1000 nM)	% cholesterol efflux (compound concentration 3000 nM)
CCCc1c(OCCCN(C)c2cnc(CC(=O)O)cn2)ccc2c(C(F)(F)F)noc12 [Example 25, {5-[methyl(3-{[7-propyl-3-(trifluoromethyl)-1,2-benzisoxazol-6-yl]oxy}propyl)amino]pyrazin-2-yl}acetic acid]	3.4%	4.4%	4.3%	6.6%	7.4%	7.7%
CCCc1c(OCCCn2ccc3cc(CC(=O)O)c(Cl)cc32)ccc2c(C(F)(F)F)noc12 [Example 40, [6-chloro-1-(3-{[7-propyl-3-(trifluoromethyl)-1,2-benzisoxazol-6-yl]oxy}propyl)-1H-indol-5-yl]acetic acid]	4.9%	5.2%	5.9%	6.3%	6.5%	7.7%
